We go through 38 compounds from patent publication US8716292B2, “Riminophenazines with 2-(heteroaryl)amino substituents and their anti-microbial activity” (priority 2010, dated 2014).

≈ marks a conversion by molar mass, not a printed value.

One test relates to Mycobacterium tuberculosis H37Rv strains. Nature of the test: In vitro assay for antimicrobial susceptibility (microplate Alamar blue MIC). In kind it is cell-based. The note with it: Mycobacterium tuberculosis, H37RV, 7H9, Alamar blue, inhibition ≧90%; read-out: MIC (μg/mL) against H37Rv.
For `COC1CCC(/N=c2\cc3n(-c4ccc(Cl)cc4)c4ccccc4nc-3cc2Nc2ncccn2)CC1` (centres unmarked) [TBI-1090, 5-(4-Chlorophenyl)-3-(4-methoxycyclohexyl)imino-2-(pyrimidin-2-yl)amino-3,5-dihydrophenazine], the MIC is below 0.0075 µg/mL. Consider `CC(C)/N=c1\cc2n(-c3ccc(Cl)cc3)c3ccccc3nc-2cc1Nc1ccccn1` [TBI-1076, 5-(4-Chlorophenyl)-3-(1-methylethyl)imino-2-(2-pyridyl)amino-3,5-dihydrophenazine], for which the MIC is 0.014 µg/mL (≈ 0.0318 µM).

For `COC1CCC(/N=c2\cc3n(-c4ccc(F)cc4)c4ccccc4nc-3cc2Nc2ncccn2)CC1` (centres unmarked) [TBI-1080, 5-(4-Fluorophenyl)-3-(4-methoxycyclohexyl)imino-2-(pyrimidin-2-yl)amino-3,5-dihydrophenazine], the MIC came out at 0.029 µg/mL (≈ 0.0586 µM).

Still in this test, the particulars now being: Mycobacterium tuberculosis, H37RV, in vitro, Mycobacterium tuberculosis H37Rv strains; read-out: MIC (μg/mL) against H37Rv.
As to `COc1nc(C)ccc1Nc1cc2nc3ccccc3n(-c3ccc(F)cc3)c-2c/c1=N\C(C)C` [TBI-1092, 5-(4-Fluorophenyl)-3-(1-methylethyl)imino-2-(2-methoxy-6-methyl-3-pyridyl)amino-3,5-dihydrophenazine], the MIC amounted to 0.424 µg/mL (≈ 0.907 µM). The same measure, in the same setting: with `COc1ncccc1Nc1cc2nc3ccccc3n(-c3ccc(C)cc3)c-2c/c1=N\C1CCOCC1` [TBI-310, 5-(4-Methylphenyl)-3-(4-tetrahydropyranyl)imino-2-(2-methoxy-3-pyridyl)amino-3,5-dihydrophenazine] the figure was 0.03 µg/mL (≈ 0.061 µM); with `Cc1ncccc1Nc1cc2nc3ccccc3n(-c3ccc(F)cc3)c-2c/c1=N\C1CC1` [TBI-1014, 5-(4-Fluorophenyl)-3-cyclopropylimino-2-(2-methyl-3-pyridyl)amino-3,5-dihydrophenazine], 0.025 µg/mL (≈ 0.0574 µM); with `COc1ncccc1Nc1cc2nc3ccccc3n(-c3ccc(Br)cc3)c-2c/c1=N\C1CCOCC1` [TBI-518, 5-(4-Bromophenyl)-3-(4-tetrahydropyranyl)imino-2-(2-methoxy-3-pyridyl)amino-3,5-dihydrophenazine], 0.02 µg/mL (≈ 0.0359 µM). Still for that read-out and setting: with `Clc1ccccc1-n1c2c/c(=N\C3CCCCC3)c(Nc3cccnc3)cc-2nc2ccccc21` [TBI-891, 5-(2-Chlorophenyl)-3-cyclohexylimino-2-(3-pyridyl)amino-3,5-dihydrophenazine] the figure was 0.036 µg/mL (≈ 0.075 µM); with `COc1ncccc1Nc1cc2nc3ccccc3n(-c3ccc(C(F)(F)F)cc3)c-2c/c1=N\C1CCN(CC(C)C)CC1` [TBI-702], 0.016 µg/mL (≈ 0.0266 µM). On to `Cc1ccc(-n2c3c/c(=N\CCN4CCOCC4)c(Nc4cccnc4)cc-3nc3ccccc32)cc1` [TBI-302, 5-(4-Methylphenyl)-3-(2-morpholinoethyl)imino-2-(3-pyridyl)amino-3,5-dihydro-phenazine], for which the MIC worked out at 0.125 µg/mL (≈ 0.255 µM).

In the case of `Cc1ccc(-n2c3c/c(=N\C(C)C)c(Nc4cncc(C)c4)cc-3nc3ccccc32)cc1` [TBI-327, 5-(4-Methylphenyl)-3-(1-methylethyl)imino-2-(5-methyl-3-pyridyl)amino-3,5-dihydrophenazine], the MIC came out at 0.109 µg/mL (≈ 0.251 µM). Take `OC1CCC(/N=c2\cc3n(-c4ccc(Br)cc4)c4ccccc4nc-3cc2Nc2cccnc2)CC1` (centres unmarked) [TBI-094, 5-(4-Bromophenyl)-3-(4-hydroxycyclohexyl)imino-2-(3-pyridyl)amino-3,5-dihydrophenazine]: the MIC amounted to 0.5 µg/mL (≈ 0.925 µM).

With `COc1ncccc1Nc1cc2nc3ccccc3n(-c3ccc(Cl)c(Cl)c3)c-2c/c1=N\C1CCC1` [TBI-946, 5-(3,4-Dichlorophenyl)-3-cyclobutylimino-2-(2-methoxy-3-pyridyl)amino-3,5-dihydrophenazine], the MIC was found to be 0.06 µg/mL (≈ 0.116 µM).

Turning to `CN1CCC(/N=c2\cc3n(-c4ccccc4)c4ccccc4nc-3cc2Nc2cccnc2)CC1` [TBI-055, 5-Phenyl-3-(N-methyl-4-piperidyl)imino-2-(3-pyridyl)amino-3,5-dihydrophenazine], the MIC was 0.5 µg/mL (≈ 1.09 µM). Same read-out and setting: with `Cc1ccc(-n2c3c/c(=N\C4CCN(C5CCCC5)CC4)c(Nc4cccnc4)cc-3nc3ccccc32)cc1` [TBI-307, 5-(4-Methylphenyl)-3-(N-cyclopentyl-4-piperidyl)imino-2-(3-pyridyl)amino-3,5-dihydrophenazine] the figure was 0.125 µg/mL (≈ 0.236 µM).

Regarding `COc1ccc(Nc2cc3nc4ccccc4n(-c4ccc(C(F)(F)F)cc4)c-3c/c2=N\C2CCOCC2)cn1` [TBI-733, 5-(4-Trifluoromethylphenyl)-3-(4-tetrahydropyranyl)imino-2-(6-methoxy-3-pyridyl)amino-3,5-dihydrophenazine], the MIC was 0.111 µg/mL (≈ 0.203 µM). The same measure, in the same setting: with `Clc1ccccc1-n1c2c/c(=N\C3CC3)c(Nc3cccnc3)cc-2nc2ccccc21` [TBI-892, 5-(2-Chlorophenyl)-3-cyclopropylimino-2-(3-pyridyl)amino-3,5-dihydrophenazine] the figure was 0.028 µg/mL (≈ 0.0639 µM). Same read-out and setting: with `COc1ncccc1Nc1cc2nc3ccccc3n(-c3ccc(C(F)(F)F)cc3)c-2c/c1=N\C1CCC1` [TBI-728, 5-(4-Trifluoromethylphenyl)-3-cyclobutylimino-2-(2-methoxy-3-pyridyl)amino-3,5-dihydrophenazine] the figure was 0.033 µg/mL (≈ 0.064 µM). Same read-out and setting: with `Brc1ccc(-n2c3c/c(=N\C4CC4)c(Nc4cccnc4)cc-3nc3ccccc32)cc1` [TBI-090, 5-(4-Bromophenyl)-3-cyclopropylimino-2-(3-pyridyl)amino-3,5-dihydrophenazine] the figure was 0.016 µg/mL (≈ 0.0332 µM); with `Cc1ncccc1Nc1cc2nc3ccccc3n(-c3ccc(C(F)(F)F)cc3)c-2c/c1=N\C1CC1` [TBI-729], 0.186 µg/mL (≈ 0.383 µM). For `COc1ncccc1Nc1cc2nc3ccccc3n(-c3ccc(Cl)cc3Cl)c-2c/c1=N\C1CCC1` [TBI-893, 5-(2,4-Dichlorophenyl)-3-cyclobutylimino-2-(2-methoxy-3-pyridyl)amino-3,5-dihydrophenazine], the MIC was determined as 0.06 µg/mL (≈ 0.116 µM).

As for `COC1CCC(N=c2cc3n(-c4ccc(C(F)(F)F)cc4)c4ccccc4nc-3cc2Nc2cccnc2C)CC1` (centres unmarked) [TBI-706, 5-(4-Trifluoromethylphenyl)-3-(4-methoxycyclohexyl)imino-2-(2-methyl-3-pyridyl)amino-3,5-dihydrophenazine], the MIC turned out to be 0.011 µg/mL (≈ 0.0197 µM). Regarding `Cc1cncc(Nc2cc3nc4ccccc4n(-c4ccc(F)cc4)c-3c/c2=N\C(C)C)c1` [TBI-1025, 5-(4-Fluorophenyl)-3-(1-methylethyl)imino-2-(5-methyl-3-pyridyl)amino-3,5-dihydrophenazine], the MIC is 0.122 µg/mL (≈ 0.279 µM).

`Cc1ccc(-n2c3c/c(=N\CCN4CCOCC4)c(Nc4ccc(C)nc4)cc-3nc3ccccc32)cc1` [TBI-318, 5-(4-Methylphenyl)-3-(2-morpholinoethyl)imino-2-(6-methyl-3-pyridyl)amino-3,5-dihydrophenazine]: the MIC was 0.087 µg/mL (≈ 0.172 µM).

For `CC(C)/N=c1\cc2n(-c3ccc(Cl)c(Cl)c3)c3ccccc3nc-2cc1Nc1cccnc1` [TBI-336, 5-(3,4-Dichlorophenyl)-3-(1-methylethyl)imino-2-(3-pyridyl)amino-3,5-dihydrophenazine], the MIC stood at 0.055 µg/mL (≈ 0.116 µM). Still for that read-out and setting: with `Brc1ccc(-n2c3c/c(=N\C4CCOCC4)c(Nc4cccnc4)cc-3nc3ccccc32)cc1` [TBI-093, 5-(4-Bromophenyl)-3-(4-tetrahydropyranyl)imino-2-(3-pyridyl)amino-3,5-dihydrophenazine] the figure was 0.163 µg/mL (≈ 0.31 µM). Still for that read-out and setting: with `Clc1ccc(-n2c3c/c(=N\CCN4CCOCC4)c(Nc4cccnc4)cc-3nc3ccccc32)cc1` [TBI-433, 5-(4-Chlorophenyl)-3-(2-morpholinoethyl)imino-2-(3-pyridyl)amino-3,5-dihydrophenazine] the figure was 0.25 µg/mL (≈ 0.489 µM); with `Cc1ccc(Nc2cc3nc4ccccc4n(-c4ccccc4)c-3c/c2=N\C2CCC(O)CC2)cn1` (centres unmarked) [TBI-086], 0.5 µg/mL (≈ 1.05 µM); with `O[C@H]1CC[C@H](/N=c2\cc3n(-c4cccc(Cl)c4)c4ccccc4nc-3cc2Nc2cccnc2)CC1` [TBI-811, 5-(3-Chlorophenyl)-3-(1′,4′-trans-4-hydroxycyclohexyl)imino-2-(3-pyridyl)amino-3,5-dihydrophenazine], 0.5 µg/mL (≈ 1.01 µM).

Take `Cc1ncccc1Nc1cc2nc3ccccc3n(-c3ccc(F)cc3)c-2c/c1=N\C(C)C` [TBI-693, 5-(4-Fluorophenyl)-3-(1-methylethyl)imino-2-(2-methyl-3-pyridyl)amino-3,5-dihydrophenazine]: the MIC worked out at 0.03 µg/mL (≈ 0.0686 µM). Same read-out and setting: with `COc1ncccc1Nc1cc2nc3ccccc3n(-c3ccccc3)c-2c/c1=N\C1CCN(CC(C)C)CC1` [TBI-064, 5-Phenyl-3-(N-isobutyl-4-piperidyl)imino-2-(2-methoxy-3-pyridyl)amino-3,5-dihydrophenazine] the figure was 0.057 µg/mL (≈ 0.107 µM); with `COC1CCC(/N=c2\cc3n(-c4ccccc4C(F)(F)F)c4ccccc4nc-3cc2Nc2cccnc2)CC1` (centres unmarked) [TBI-739], 0.239 µg/mL (≈ 0.44 µM); with `COc1ncccc1Nc1cc2nc3ccccc3n(-c3ccc(OC(F)(F)F)cc3)c-2c/c1=N\C1CCN(CC(C)C)CC1` [TBI-165, 5-(4-Trifluoromethoxyphenyl)-3-(N-isobutyl-4-piperidyl)imino-2-(2-methoxy-3-pyridyl)amino-3,5-dihydrophenazine], 0.016 µg/mL (≈ 0.0259 µM).

As to `COc1ncccc1Nc1cc2nc3ccccc3n(-c3ccc(NC(C)=O)cc3)c-2c/c1=N\C1CCC(OC)CC1` (centres unmarked) [TBI-1222, 5-(4-Acetamidophenyl)-3-(4-methoxycyclohexyl)imino-2-(2-methoxy-3-pyridyl)amino-3,5-dihydrophenazine], the MIC turned out to be 0.925 µg/mL (≈ 1.64 µM).

For `COc1ncccc1Nc1cc2nc3cc(C#N)ccc3n(-c3ccc(F)cc3)c-2c/c1=N\C(C)C` [TBI-1064, 8-Cyano-5-(4-fluorophenyl)-3-(1-methylethyl)imino-2-(2-methoxy-3-pyridyl)amino-3,5-dihydrophenazine], the MIC was determined as 0.24 µg/mL (≈ 0.502 µM). Still for that read-out and setting: with `Cc1ccc(-n2c3c/c(=N\C4CCC4)c(Nc4cccnc4C)cc-3nc3ccccc32)cc1` [TBI-347, 5-(4-Methylphenyl)-3-cyclobutylimino-2-(2-methyl-3-pyridyl)amino-3,5-dihydrophenazine] the figure was 0.042 µg/mL (≈ 0.0943 µM); with `COCC(C/N=c1\cc2n(-c3ccc(C(F)(F)F)cc3)c3ccccc3nc-2cc1Nc1cccnc1OC)OC` (centres unmarked) [TBI-744], 0.059 µg/mL (≈ 0.105 µM). On the same count and under the same terms, with `Fc1ccc(-n2c3c/c(=N\C4CC4)c(Nc4cccnc4)cc-3nc3ccccc32)cc1F` [TBI-1429, 5-(3,4-Difluorophenyl)-3-cyclopropylimino-2-(3-pyridyl)amino-3,5-dihydrophenazine] the figure was 0.011 µg/mL (≈ 0.025 µM).
